Assay results: US9603865B2, “Methods for the treatment of hepatitis B and hepatitis D virus infections” (priority 2014, dated 2017)
Counter-ions that a name gives are not always drawn.

Assays:
DHBV [1] = assay: Serum DHBV DNA by quantitative PCR in DHBV infected Pekin ducks, combination treatment (Example III); type: in vivo
Protocol: The antiviral effect of combined treatment with the calcium chelate complex of REP 2139 (REP 2139-Ca) and TDF or REP 2139-Ca and TDF and ETV in DHBV infected Pekin ducks was examined by assessing changes in the levels of serum and liver DHBV DNA during and after treatment by quantitative PCR. Infection of ducks was carried out as described in Example II except that treatment was started one month after infection. Treatment regimens were as follows: • 1) Normal saline given by IP injection 3 times per week for 4 weeks • 2) TDF, given 15 mg/day by oral gavage for 28 days • 3) REP 2139-Ca, given 10 mg/kg by IP injection, 3 times per week for 4 weeks. • 4) REP 2139-Ca and TDF (as dosed above) • 5) REP 2139-Ca and TDF (as dosed above) and ETV given 1 mg/day by oral gavage for 28 days.
Serum DHBV DNA was assessed pre-treatment (time point A), at day 14 of treatment (time point B), at the end of treatment (time point C), and one and two months after treatment was stopped (follow-up, time point D and E).

HBV [2] = assay: Quantitative serum HBsAg by IMPACT platform in a patient with chronic HBV infection (Example I); type: in vivo, human; conditions: REP 2055 monotherapy; plateau from 10 weeks until 29 weeks
Excerpt: To confirm the synergistic activity of combination REP 2055/ETV therapy on suppression of HBsAg, serum samples from this patient were re-analyzed using the IMPACT platform to accurately quantitate serum HBsAg levels as described in de Neit et al. (2014, Antiviral Ther., 19: 259-267). […] Importantly, serum HBsAg reduction in this patient reached a plateau where significant serum HBsAg was stably present starting from 10 weeks of REP 2055 treatment until the start of combination REP 2055/ETV therapy at 29 weeks of treatment.

HBV [3] = assay: Serum viremia (serum HBV DNA) in a patient with chronic HBV infection (Example I); type: in vivo, human; conditions: REP 2055 monotherapy, once weekly IV infusion of 400 mg, one patient
Protocol: (§1) A pharmaceutically acceptable formulation of the NAP REP 2055 (SEQ ID NO: 2) was administered to a patient with chronic HBV infection by once weekly IV infusion of 400 mg. The serum HBsAg response in this patient was monitored real-time each week using a qualified, on-site qualitative ELISA. This ELISA method is very sensitive to low levels of HBsAg but cannot accurately quantify any significant HBsAg concentration in the blood. […] Therefore, after 29 weeks of REP 2055 monotherapy, this patient received HBV polymerase inhibition therapy in addition to the existing REP 2055 therapy which consisted of 0.5 mg of entecavir taken orally every day.

HBV [4] = assay: Serum HBsAg by on-site qualitative ELISA in a patient with chronic HBV infection (Example I); type: in vivo, human; conditions: REP 2055 monotherapy, once weekly IV infusion of 400 mg, 29 weeks, one patient
Protocol: as §1
This synergistic control of serum HBsAg with combined REP 2055/ETV treatment was maintained over many weeks of treatment.

DHBV [5] = conditions: previously established DHBV infection in vivo; cited from earlier work

Compound | serum DHBV DNA during treatment (DHBV [1]; 28 days treatment, day 14 (halfway) and end of treatment, REP 2139-Ca 10 mg/kg IP 3 times per week, TDF 15 mg/day, ETV 1 mg/day oral gavage) | serum DHBV DNA during follow-up (DHBV [1]; one and two months after treatment was stopped) | initial reduction of serum HBsAg (quantitative, IMPACT platform) (HBV [2]) [log] | drop in serum viremia (serum HBV DNA) (HBV [3]) [log] | serum HBsAg (qualitative ELISA) (HBV [4]) | cccDNA copy number (DHBV [5]) | cccDNA transcriptional activity (DHBV [5]) | serum duck HBsAg (DHBsAg) (DHBV [5])
CC(C)OC(=O)OCOP(=O)(CO[C@H](C)Cn1cnc2c(N)ncnc21)OCOC(=O)OC(C)C [TDF, tenofovir disoproxil fumarate] | reduced in all ducks but control was not achieved in all ducks until the end of treatment | rebounded in all ducks |  |  |  |  |  | 
(dAdC)20 (ACACACACACACACACACACACACACACACACACACACAC; DNA, all phosphorothioate, methylation of C not given here) [REP 2055, Each linkage is phosphorothioated] |  |  | ~2 | ~1 | no detectable reduction | reduction in cccDNA copy number | transcriptional inactivation of cccDNA | clearance
